According to patent publication US20060009401A1, “Method for treatment and prevention of herpes zoster by topical application” (aRigen, Inc., priority 2004, published 2006):

How the values were obtained:
[1] = target: T1, dihydropyrimidine dehydrogenase (DPD) (Homo sapiens, UniProt Q12882); details: re-absorbed BVU, metabolite of oral sorivudine; cited from earlier work
T1 sequence (Q12882 4-1025): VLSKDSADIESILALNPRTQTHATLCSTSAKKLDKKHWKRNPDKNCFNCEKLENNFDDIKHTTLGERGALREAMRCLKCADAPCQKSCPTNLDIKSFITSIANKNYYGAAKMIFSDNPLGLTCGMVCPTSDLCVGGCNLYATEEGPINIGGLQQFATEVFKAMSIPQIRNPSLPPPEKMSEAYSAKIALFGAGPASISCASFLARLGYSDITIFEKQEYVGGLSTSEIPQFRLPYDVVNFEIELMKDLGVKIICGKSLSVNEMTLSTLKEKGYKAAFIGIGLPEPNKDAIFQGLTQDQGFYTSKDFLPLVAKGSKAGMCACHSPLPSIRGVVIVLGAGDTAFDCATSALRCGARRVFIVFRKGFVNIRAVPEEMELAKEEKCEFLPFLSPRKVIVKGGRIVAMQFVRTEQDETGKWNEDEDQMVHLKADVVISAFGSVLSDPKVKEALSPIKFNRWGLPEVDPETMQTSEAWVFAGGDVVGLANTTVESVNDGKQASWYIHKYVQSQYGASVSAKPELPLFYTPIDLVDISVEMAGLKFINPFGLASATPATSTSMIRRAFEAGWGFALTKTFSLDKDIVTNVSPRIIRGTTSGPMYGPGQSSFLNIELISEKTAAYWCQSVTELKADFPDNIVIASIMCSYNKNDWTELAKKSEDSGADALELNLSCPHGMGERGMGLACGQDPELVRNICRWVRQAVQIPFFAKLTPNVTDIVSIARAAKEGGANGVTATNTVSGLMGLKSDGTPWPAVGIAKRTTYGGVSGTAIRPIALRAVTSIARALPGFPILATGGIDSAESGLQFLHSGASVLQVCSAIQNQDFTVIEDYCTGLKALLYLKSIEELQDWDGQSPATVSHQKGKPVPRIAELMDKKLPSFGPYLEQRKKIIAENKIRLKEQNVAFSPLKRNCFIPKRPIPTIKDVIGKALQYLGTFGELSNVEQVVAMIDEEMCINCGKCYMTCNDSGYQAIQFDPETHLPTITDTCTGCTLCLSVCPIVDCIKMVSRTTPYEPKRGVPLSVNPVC

[2] = Study of interaction with 5-FU in rats; assay type: in vivo, Female Wister rats; details: for interaction with 5-FU: Groups 5 and 6, preparations for topical use combined with 5-FU; for Body weight (pre.) / Feed intake (pre.): before test
Text: Interactions with 5-FU, a fluorouracil-based anticancer drug, were studies using sorivudine (BVAU) 3% cream and CVAU 3% cream. Female Wister rats were raised for one week, and hair from the blade bone to the waist was shaved under anesthesia. The preparations for topical use were applied two times a day for one week. The expression “p.o.” appearing in the table means oral administration.
Erythrocyte count and leukocyte count are values measured seven days after the start of administration.

HSV-1 [3] = details: against HSV-1; cited from earlier work
EBV = details: against EBV; cited from earlier work
VZV = details: against VZV; cited from earlier work
HSV-1 [4] = details: application to the skin, mice; cited from earlier work
[5] = cited from earlier work
[6] = oral agent, administered at the same time; cited from earlier work
[7] = BVAU 30 mg/kg p.o. + 5-FU 60 mg/kg p.o.
[8] = BVAU 30 mg/kg p.o. + 5-FU 60 mg/kg p.o., seven days after start
[9] = single agent p.o. (BVAU 30 mg/kg; 5-FU 60 mg/kg)
[10] = single agent p.o. (BVAU 30 mg/kg; 5-FU 60 mg/kg), seven days after start of administration

O=c1[nH]cc(/C=C/Br)c(=O)[nH]1 [BVU, bromovinyluracil]
inhibition of DPD [1]: inhibits

O=c1[nH]c(=O)n([C@@H]2O[C@H](CO)[C@@H](O)[C@@H]2O)cc1/C=C/Cl [CVAU, 1-β-D-arabinofuranosyl-5-[(E)-2-chrolovinyl]uracil]
interaction with 5-FU [2]: no interaction observed

O=c1[nH]c(=O)n([C@@H]2O[C@H](CO)[C@@H](O)[C@@H]2O)cc1/C=C/Br [sorivudine, 1-β-D-arabinofuranosyl-5-[(E)-2-bromovinyl]uracil]
Body weight (pre.) [2, 7]: 125 | Feed intake (pre.) [2, 7]: 16 | Body weight (7 d) [2, 8]: 88 | Erythrocyte count [2, 8]: 892 10^4/mm^3 | Feed intake (7 d) [2, 8]: 3 | leukocyte count [2, 8]: 5.8 10^2/mm^3 | side effect due to interaction with 5-FU ([2]; Group 4, orally administered with 5-FU (positive control)): significant weight loss and myelo-suppression | interaction with 5-FU [2]: no interaction observed | Body weight (pre.) [2, 9]: 124 | Feed intake (pre.) [2, 9]: 15 | Body weight (7 d) [2, 10]: 143 | Erythrocyte count [2, 10]: 653 10^4/mm^3 | Feed intake (7 d) [2, 10]: 16 | leukocyte count [2, 10]: 45.6 10^2/mm^3 | antiviral activity (HSV-1 [3]): extremely potent antiviral activity | antiviral activity (EBV): extremely potent antiviral activity | antiviral activity (VZV): extremely potent antiviral activity | skin symptoms caused by inoculation with HSV-1 (HSV-1 [4]): suppresses the skin symptoms | solubility [5]: slightly soluble | adverse effect due to drug interaction with fluorouracil-based anticancer drugs [6]: died because of the adverse effect due to drug interaction
